Measurements reported in US11465965B2, “Double-headed protease inhibitor” (UBE INDUSTRIES, LTD., priority 2017, dated 2022).
Counter-ions that a name gives are not always drawn. Like-named read-outs stand apart in the source and are kept apart here.

Legend:
[1] = Rat pharmacokinetic (PK) test (plasma concentration after oral administration); details: male, SD
Method: Each test compound was suspended in a 0.5 W/V % methylcellulose 400 solution to prepare a suspension, and the resulting suspension was orally administered to a male SD rat of 7 to 8-week old (weight: 180 to 250 g). After 0.25, 0.5, 1, 2, 4, 8, and 24 hour(s) of the administration of each test compound, blood (EDTA-added blood) was collected from jugular vein under isoflurane inhalation anesthesia. […] To the resulting blood plasma was added acetonitrile, a mixed solvent of acetonitrile and water (1:1 (V/V)), or a mixed solvent of acetonitrile and 0.1 M hydrochloric acid (1:1 (V/V)), then the resulting mixture was mixed at 750 rpm for 3 minutes in a shaker, and subjected to centrifugal separation at 3700 rpm for 2 minutes in a centrifuge to remove proteins. The resulting sample was subjected to LC (liquid chromatography)/MS (mass spectrometry) measurement under the following measurement conditions.
Each compound concentration in blood plasma at each time of blood collection was calculated according to the internal standard method, and, area under the plasma concentration vs. time curve (AUCall (Area Under Curve)) was calculated according to the trapezoidal method.
The LC and MS systems used in the present test are as follows.
LC: LC20 or LC30 HPLC system manufactured by Shimadzu Corporation
Column: Phenomenex Kinetex C18 (50×2.1 mm, 2.6 μm)
Column temperature: 40° C.
Mobile phase A: aqueous solution with 0.1% formic acid, Mobile phase B: 50% acetonitrile/methanol solution with 0.1% formic acid

DIO mouse = assay: Anti-obesity effect test using DIO mouse; assay type: in vivo; details: 336 h, DIO mice, vs vehicle group, read-out: Weight loss rate; for inhibition in vivo at 30 mg/kg: oral 30 mg/kg once daily for 2 weeks; for inhibition in vivo at 100 mg/kg: oral 100 mg/kg once daily for 2 weeks
Method: (Test Example 4): Anti-Obesity Effect Test Using DIO Mouse
Diet-induced obesity (DIO) mice (D-12492 diet, male, C57BL-DIO, 26 to 28-week old) were orally administered with a 0.5 W/V % methylcellulose suspension comprising each test compound (Compound administration group, 5 or 6 mice/group) or a 0.5 W/V % methylcellulose suspension (Compound non-administration group (Vehicle group), 6 mice/group) once daily for 2 weeks. Weight loss rate was calculated by the following equation. Weight loss rate (%) of each Compound administration group−(1−average weight at the last day of the test of each Compound administration group/average weight at the last day of the test of Vehicle group)×100

[2] = target: T1, Human recombinant enteropeptidase (Homo sapiens, UniProt P98073); assay: Human enteropeptidase inhibition test; assay type: biochemical; details: read-out: Inhibition rate (enteropeptidase); for inhibition at 0.001 µM: compound concentration 1 nM
T1 construct: purchased BIO Vision Inc. 7529-50
T1 sequence (P98073 whole entry): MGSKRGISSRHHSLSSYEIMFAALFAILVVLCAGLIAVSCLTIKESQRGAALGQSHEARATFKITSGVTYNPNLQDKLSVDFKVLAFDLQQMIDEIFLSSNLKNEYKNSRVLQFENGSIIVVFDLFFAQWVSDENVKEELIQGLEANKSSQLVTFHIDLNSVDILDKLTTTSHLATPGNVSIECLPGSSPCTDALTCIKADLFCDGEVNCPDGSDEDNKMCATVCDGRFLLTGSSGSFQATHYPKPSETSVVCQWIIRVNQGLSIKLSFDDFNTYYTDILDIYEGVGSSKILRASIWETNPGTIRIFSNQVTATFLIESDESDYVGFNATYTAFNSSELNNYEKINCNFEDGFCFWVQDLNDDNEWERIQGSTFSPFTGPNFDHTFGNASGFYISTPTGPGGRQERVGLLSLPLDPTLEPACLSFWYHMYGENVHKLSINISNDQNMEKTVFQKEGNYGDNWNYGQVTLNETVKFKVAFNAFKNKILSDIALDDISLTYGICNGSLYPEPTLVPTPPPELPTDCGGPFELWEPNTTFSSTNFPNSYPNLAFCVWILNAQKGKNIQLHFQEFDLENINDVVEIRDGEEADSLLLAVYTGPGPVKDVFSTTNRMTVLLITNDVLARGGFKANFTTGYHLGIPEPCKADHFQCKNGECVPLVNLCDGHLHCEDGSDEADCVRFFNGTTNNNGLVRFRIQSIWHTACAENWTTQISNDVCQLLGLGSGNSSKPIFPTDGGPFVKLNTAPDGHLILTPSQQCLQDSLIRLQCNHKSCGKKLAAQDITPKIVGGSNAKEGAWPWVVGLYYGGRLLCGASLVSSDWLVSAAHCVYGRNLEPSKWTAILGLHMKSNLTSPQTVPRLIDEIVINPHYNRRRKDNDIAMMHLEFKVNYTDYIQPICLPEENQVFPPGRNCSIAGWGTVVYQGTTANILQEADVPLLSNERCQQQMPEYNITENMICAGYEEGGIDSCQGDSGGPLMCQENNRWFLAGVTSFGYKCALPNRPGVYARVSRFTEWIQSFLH
Method: (Test Example 1): Human Enteropeptidase Inhibition Test
Human recombinant enteropeptidase (manufactured by BIO Vision Inc., catalog no.: 7529-50) was diluted with an assay buffer (50 mM tricine (pH8.0), 0.01 W/V % Tween 20, 10 mM CaCl2) to prepare an […] enzyme solution. Then, 5FAM-Abu-Gly-Asp-Asp-Lys-Ile-Val-Gly-Gly-Lys (CPQ2)-Lys-Lys-NH2 (manufactured by CHINESE PEPTIDE COMPANY, purity: 94.5) was diluted with the assay buffer to prepare a 1.5 μM substrate solution. Each test compound was dissolved into DMSO, then diluted with the assay buffer 100 times, and further appropriately diluted with an assay buffer comprising 1% DMSO to prepare each compound solution. 10 μL of the compound solution, 15 μL of the assay buffer, and 50 μL of the substrate solution were added to a 96 well black plate (manufactured by Thermo Fisher Scientific Inc., code no.: 9502867), mixed, then 25 μL of the enzyme solution was added thereto, and mixed to start the reaction. Fluorescence intensities at excitation wavelength 485 nm and fluorescence wavelength 535 nm were measured by using a fluorescence plate reader (Flex station 3) (Test compound addition group). Also, the same reaction as described above except for not adding each test compound was carried out (Test compound non-addition group). Additionally, the same reaction as described above except for not adding each test compound and the enzyme was carried out (Control group). Inhibition rate was calculated by the following equation using fluorescence intensity after 20 minutes of reaction start. Inhibition rate (%)=(1−(fluorescence intensity of Test compound addition group−fluorescence intensity of Control group)÷(fluorescence intensity of Test compound non-addition group−fluorescence intensity of Control group))×100

[3] = target: T2, Human recombinant trypsin (Homo sapiens, UniProt P07477); assay: Human trypsin inhibition test; assay type: biochemical; details: 20 minutes after reaction start, read-out: Inhibition rate (trypsin); for inhibition at 0.001 µM: compound concentration 1 nM; for inhibition at 0.01 µM: compound concentration 10 nM; for inhibition at 0.1 µM: compound concentration 100 nM
T2 construct: purchased Wako Pure Chemical Industries, Ltd. 206-17171
Method: (Test Example 2): Human Trypsin Inhibition Test
Human recombinant trypsin (manufactured by Wako Pure Chemical Industries, Ltd., code no.: 206-17171) was diluted with an assay buffer (0.1 M Tris-HCl (pH8.0), 0.15 M NaCl, 10 mM CaCl2, 0.05% Brij35) to prepare a 10 ng/mL enzyme solution. Then, Boc-Phe-Ser-Arg-MCA (manufactured by PEPTIDE INSTITUTE, INC., code no.: 3107-v) was diluted with the assay buffer to prepare a 40 μM substrate solution. Each test compound was dissolved into DMSO, then diluted with the assay buffer 100 times, and further appropriately diluted with an assay buffer comprising 1% DMSO to prepare each compound solution. 10 μL of the compound solution, 15 μL of the assay buffer, and 50 μL of the substrate solution were added to a 96 well black plate (manufactured by Thermo Fisher Scientific Inc., code no.: 9502867), mixed, and then 25 μL of the enzyme solution was added thereto, and mixed to start the reaction. Fluorescence intensities at excitation wavelength 355 nm and fluorescence wavelength of 460 nm were measured by using a fluorescence plate reader (Flex station 3) (Test compound addition group). Also, the same reaction as described above except for not adding each test compound was carried out (Test compound non-addition group). Additionally, the same reaction as described above except for not adding each test compound and the enzyme was carried out (Control group). Inhibition rate was calculated by the following equation using fluorescence intensity after 20 minutes of reaction start. Inhibition rate (%)=(1−(fluorescence intensity of Test compound addition group−fluorescence intensity of Control group)[…](fluorescence intensity of Test compound non-addition group−fluorescence intensity of Control group))×100

[4] = 20 minutes after reaction start
[5] = compound concentration 10 nM, 20 minutes after reaction start
[6] = compound concentration 100 nM, 20 minutes after reaction start

Structure (SMILES)	AUC ([1]; 10 mg/kg) [ng·h/mL]	inhibition in vivo at 30 mg/kg (DIO mouse) [%]	inhibition in vivo at 100 mg/kg (DIO mouse) [%]	inhibition at 0.001 µM [2, 4] [%]	inhibition at 0.01 µM [2, 5] [%]	inhibition at 0.1 µM [2, 6] [%]	inhibition at 0.001 µM [3] [%]	inhibition at 0.01 µM [3] [%]	inhibition at 0.1 µM [3] [%]	AUC ([1]; 9 mg/kg) [ng·h/mL]	inhibition at 0.01 µM [2] [%]	inhibition at 0.1 µM [2] [%]	inhibition in vivo at 90 mg/kg (DIO mouse; oral 90 mg/kg once daily for 2 weeks) [%]
N=C(N)Nc1ccc(C(=O)Oc2ccc(CNS(=O)(=O)N(CCOCCOCCN([C@@H](CC(=O)O)C(=O)O)S(=O)(=O)NCc3ccc(OC(=O)c4ccc(NC(=N)N)cc4)cc3)[C@@H](CC(=O)O)C(=O)O)cc2)cc1 [2-(c)]	≤ 100	≥ 4											
Cl.N=C(N)Nc1ccc(C(=O)Oc2ccc(CNS(=O)(=O)N(CCOCCOCCOCCOCCOCCN([C@@H](CC(=O)O)C(=O)O)S(=O)(=O)NCc3ccc(OC(=O)c4ccc(NC(=N)N)cc4)cc3)[C@@H](CC(=O)O)C(=O)O)cc2)cc1 [5-(c), (2S,22S)-3,21-bis(N-(4-((4-guanidinobenzoyl)oxy)benzyl)sulfamoyl)-6,9,12,15,18-pentaoxa-3,21-diazatricosane-1,2,22,23-tetracarboxylic acid hydrochloride]	≤ 100		≥ 4										
Cl.N=C(N)Nc1ccc(C(=O)Oc2ccc(CNS(=O)(=O)N(CCOCCOCCOCCOCCOCCOCCN([C@@H](CC(=O)O)C(=O)O)S(=O)(=O)NCc3ccc(OC(=O)c4ccc(NC(=N)N)cc4)cc3)[C@@H](CC(=O)O)C(=O)O)cc2)cc1 [6-(c), (2S,25S)-3,24-bis(N-(4-((4-guanidinobenzoyl)oxy)benzyl)sulfamoyl)-6,9,12,15,18,21-hexaoxa-3,24-diazahexacosane-1,2,25,26-tetracarboxylic acid hydrochloride]	≤ 100		≥ 4										
N=C(N)Nc1ccc(C(=O)Oc2ccc(CNS(=O)(=O)N(CCCCN([C@@H](CC(=O)O)C(=O)O)S(=O)(=O)NCc3ccc(OC(=O)c4ccc(NC(=N)N)cc4)cc3)[C@@H](CC(=O)O)C(=O)O)cc2)cc1 [8-(b), (2S,2′S)-2,2′-(butane-1,4-diylbis((N-(4-((4-guanidinobenzoyl)oxy)benzyl)sulfamoyl)azanediyl))disuccinic acid trifluoroacetate]	≤ 100		≥ 4	≥ 50	≥ 50	≥ 50	≥ 50	≥ 50	≥ 50				
N=C(N)Nc1ccc(C(=O)Oc2ccc(COC(=O)N(CC(=O)O)[C@@H](CC(=O)O)C(=O)N[C@@H](CC(=O)O)C(=O)NCCOCCOCCOCCOCCNC(=O)[C@H](CC(=O)O)NC(=O)[C@H](CC(=O)O)N(CC(=O)O)C(=O)OCc3ccc(OC(=O)c4ccc(NC(=N)N)cc4)cc3)cc2)cc1 [15-(b), (4S,7S,26S,29)-4,7,26,29-tetrakis(carboxymethyl)-3,30-bis((4-((4-guanidinobenzoyl)oxy)benzyl)oxy)carbonyl)-5,8,25,28-tetraoxo-12,15,18,21-tetraoxa-3,6,9,24,27,30-hexaazadotriacontane-1,32-dioic acid trifluoroacetate]				≥ 50	≥ 50	≥ 50		≥ 50	≥ 50	≤ 100			
N=C(N)Nc1ccc(C(=O)Oc2ccc(COC(=O)N(Cc3cccc(C(=O)O)c3)[C@@H](CC(=O)O)C(=O)NCCOCCOCCOCCOCCNC(=O)[C@H](CC(=O)O)N(Cc3cccc(C(=O)O)c3)C(=O)OCc3ccc(OC(=O)c4ccc(NC(=N)N)cc4)cc3)cc2)cc1 [16-(b), (3S,22S)-3,22-bis((3-carboxybenzyl) (((4-(14-guanidinobenzoyl)oxy)benzyl)oxy)carbonyl)amino)-4,21-dioxo-8,11,14,17-tetraoxa-5,20-diazatetracosane-1,24-dioic acid trifluoroacetate]								≥ 50	≥ 50	≤ 100	≥ 50	≥ 50	
N=C(N)Nc1ccc(C(=O)Oc2ccc(CNS(=O)(=O)N(Cc3cccc(C(=O)NCCOCCOCCOCCOCCNC(=O)c4cccc(CN([C@@H](CC(=O)O)C(=O)O)S(=O)(=O)NCc5ccc(OC(=O)c6ccc(NC(=N)N)cc6)cc5)c4)c3)[C@@H](CC(=O)O)C(=O)O)cc2)cc1 [18-(b), (2S,2′S)-2,2′-((((5,8,11,14-tetraoxa-2,17-diazaoctadecane-1,18-dioyl)bis(3,1-phenylene))bis(methylene))bis(N-(4-((4-guanidinobenzoyl)oxy)benzyl)sulfamoyl)azanediyl))disuccinic acid trifluoroacetate]							≥ 50	≥ 50	≥ 50	≤ 100	≥ 50	≥ 50	≥ 4
N=C(N)Nc1ccc2c(c1)CCCOc1c(cccc1C(=O)N(CCOCCOCCN(C(=O)c1cccc3c1OCCCc1cc(NC(=N)N)ccc1C(=O)O3)C(CC(=O)O)C(=O)O)C(CC(=O)O)C(=O)O)OC2=O (centres unmarked) [19-(b), 3,12-bis(10-guanidino-13-oxo-6,7,8,13-tetrahydrodibenzo[b,f][1,4]dioxecin-4-carbonyl)-6,9-dioxa-3,12-diazatetradecane-1,2,13,14-tetracarboxylic acid trifluoroacetate]	≤ 100	≥ 4		≥ 50	≥ 50	≥ 50	≥ 50	≥ 50	≥ 50				
N=C(N)Nc1ccc(C(=O)Oc2cccc(C(=O)N(CCOCCN(C(=O)c3cccc(OC(=O)c4ccc(NC(=N)N)cc4)c3)[C@@H](CC(=O)O)C(=O)O)[C@@H](CC(=O)O)C(=O)O)c2)cc1 [30-(a)]	≤ 100			≥ 50	≥ 50	≥ 50	≥ 50	≥ 50	≥ 50				
